Data set [1] is described as follows: clinical. The conditions noted are these: human, in vivo. An excerpt:
(§1) The phase 1 trial enrolled patients with relapsed/refractory solid tumors and B cell lymphoma. The study employed a standard 3+3 dose escalation design with two planned dose expansion cohorts and clinical pharmacology sub-studies. The primary endpoint was determination of a recommended phase 2 dose or MTD with standard secondary endpoints. The results of the study are also presented in WO 2015195848 and figures therein, the content of which is hereby incorporated by reference in its entirety.
[…]. […] While a decrease in AUC between the first dose and day 15 was observed, there was no further reduction in systemic exposure beyond that time, as evidenced by pre-dose Ctrough levels in the right panel.

Data set [2] relates to WSU-DLCL2 tumor. As to the kind of experiment: EPZ-6438 with CHOP chemotherapy in vivo, WSU-DLCL2 tumor (FIG. 3A).
Data set [3] concerns KARPAS 422 tumor. The experiment in a line: Single agent activity of EPZ-6438 in KARPAS 422 tumor (FIG. 2A). The conditions noted are these: mutant EZH2 (Y646N). It counts as in vivo.
For data set [4], the system named is SUDHL6 tumor. The experiment in a line: EPZ-6438 with CHOP chemotherapy in vivo, SUDHL6 tumor (FIG. 3B, 3C).
Data set [5] deals with Non-Hodgkin's lymphoma. As to the kind of experiment: Phase 1 clinical study of EPZ-6438: tumor response. It counts as in vivo, human.
Excerpt: as §1
The patients enrolled included 19 patients with Non-Hodgkin's lymphoma (NHL) of which 13 patients have DLBCL. Cell-of origin testing was intended for all NHL patients; however, 3 DLBCL patients had insufficient tissue to permit determination of germinal center vs. non-germinal center status. EZH2 mutation testing was centrally performed for 14 NHL patients by the Cobas® test (Roche). One lymphoma patient whose tumor has been treated to date carries an EZH2 mutation. For the solid tumor patients, attention has been given to recruiting patients with INI1-deficient tumors due to the oncogenic role of EZH2 in these tumors.
NHL patients on study were heavily pre-treated with 85% having received three or more prior systemic therapies and nearly half receiving four or more prior regimens.

For data set [6], the system named is H3K27 trimethylation. As to the kind of experiment: Phase 1 clinical study: tri-methyl H3K27 levels in skin biopsy by immunohistochemistry. It counts as in vivo, human. The settings on record: for reduction from baseline in PD H3K27 trimethylation in skin biopsy: wild type EZH2. An excerpt: Pre- and post-dose skin biopsies were collected to assess pharmacodynamics in a surrogate tissue through the measurement of tri-methyl H3K27 levels by immunohistochemistry.

Data set [7] relates to OCI-LY19. The experiment in a line: Combination of EPZ-6438 and other therapeutic agents (4+3 model), OCI-LY19. The settings on record: OCI-LY19; FIG. 1B.
The conditions of data set [8]: human, in vivo.
Excerpt: as §1
[…]. One patient discontinued drug for grade 4 neutropenia. Both of these patients were treated in the 800 mg expansion cohort. • Seven patients had dose interruptions. Of these, 6 were from a reversible toxicity and resumed study agent at prior dose without further issue.

[9] abbreviates: patient with primary mediastinal B-cell lymphoma, wild type EZH2, 200 mg orally twice a day.

`CCN(c1cc(-c2ccc(CN3CCOCC3)cc2)cc(C(=O)NCc2c(C)cc(C)[nH]c2=O)c1C)C1CCOCC1` [EPZ-6438, tazemetostat]: in data set [1], the “PK at steady state throughout the entire dosing range” value is on record as “dose-proportional linear PK”, the absorption result is on record as “rapid absorption” and the half-life was 3 to 5 h. Besides, in data set [2], the “effect of combination with CHOP chemotherapy on mean tumor volume” value is reported as “synergy”. Moreover, the “tumor growth, single agent” value in data set [3] was “growth inhibition”. The “effect of combination with CHOP chemotherapy on mean tumor volume and survival” value in data set [4] is “synergy”. In addition, the objective response in data set [5] (DLBCL) is 5 of 9. Further, the “reduction of abdominal mass” value in data set [5] (DLBCL patient with EZH2 mutation, by week 16) amounted to 52%. Besides, in data set [5] (evaluable NHL patients), the objective response entry is “Nine of 15”. In addition, the objective response in data set [5] (follicular lymphoma) is 3 of 5. In data set [5] (one patient with marginal zone nodular lymphoma, approaching one year on therapy), the response result was “partial response”. In data set [5] (setting [9]), the FDG uptake entry is recorded as “reduction” and the “reduction in lesion size via computed tomography (CT)” value was determined as 73%. The “reduction in lesion size via computed tomography (CT)” value in data set [5] (patient with transformed DLBCL, wild type EZH2, 100 mg orally twice a day) came to 66%. In data set [6] (patient with primary mediastinal B-cell lymphoma, 200 mg orally twice a day), the “reduction from baseline in PD H3K27 trimethylation in skin biopsy” value is on record as 27%. In data set [6] (patient with transformed DLBCL, 100 mg orally twice a day), the “reduction from baseline in PD H3K27 trimethylation in skin biopsy” value worked out at 21%. The “tri-methyl H3K27 levels across the full thickness of skin” value in data set [6] (pre- and post-dose skin biopsies) is “dose-dependent reduction”. Also, the “activity of EPZ-6438 in combination with prednisolone” value in data set [7] is “possesses activity”. In data set [8], the “Grade 3 or greater adverse events, fraction of patients” value is given as “a third”; the “Grade 3 or greater treatment-related adverse events” value was 5 patients; the tolerability result is “well-tolerated”.

As usually defined, the half-life is how long it takes for the measured level to halve. Higher therefore signals slow loss.

These data come from patent US11951109B2, “EZH2 inhibitors for treating lymphoma” (Epizyme, Inc., priority 2015, dated 2024).
